According to ChEMBL document CHEMBL1201862, “PubChem BioAssay data set” (2004):
Several values for one entry are separate records, joined by “and”; a condition that tells them apart may be missing. Identical values can stand only once.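 Briefly, cells in 96-well plates were exposed to five compound concentrations for 48 h, and endpoints were estimated by linear interpolation. GI50 = concentration required for 50% inhibition of growth.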 Activity calls are given as the source filed them. Rule as the data show it: active = GI50 up to about 1.1 µM and inactive = higher.

Legend:
Experiment in all cases: NCI anticancer screen, dose series, 48 h
A498 = system: A498
A549 = system: A549
ACHN = system: ACHN
CCRF-CEM = system: CCRF-CEM
DLD-1 = system: DLD-1
EKVX = system: EKVX
HCC 2998 = system: HCC 2998
HCT-116 = system: HCT-116
HCT-15 = system: HCT-15
HOP-92 = system: HOP-92
HT-29 = system: HT-29
IGROV-1 = system: IGROV-1
KM-20L2 = system: KM-20L2
KM12 = system: KM12
LOX IMVI = system: LOX IMVI
LXFL 529 = system: LXFL 529
M14 = system: M14
M19-MEL = system: M19-MEL
Malme-3M = system: Malme-3M
NCI-H226 = system: NCI-H226
NCI-H23 = system: NCI-H23
NCI-H460 = system: NCI-H460
NCI-H522 = system: NCI-H522
OVCAR-4 = system: OVCAR-4
OVCAR-5 = system: OVCAR-5
RPMI-8226 = system: RPMI-8226
RXF 393 = system: RXF 393
SF-539 = system: SF-539
SK-MEL-28 = system: SK-MEL-28
SK-MEL-2 = system: SK-MEL-2
SK-MEL-5 = system: SK-MEL-5
SNB-19 = system: SNB-19
SNB-78 = system: SNB-78
SR = system: SR
SW-620 = system: SW-620
TK-10 = system: TK-10
U-251 = system: U-251
UACC-257 = system: UACC-257
UO-31 = system: UO-31
XF498 = system: XF498
786-0 = system: 786-0
CAKI-1 = system: CAKI-1
HOP-62 = system: HOP-62
K562 = system: K562
MOLT-4 = system: MOLT-4
OVCAR-3 = system: OVCAR-3
OVCAR-8 = system: OVCAR-8
SF-268 = system: SF-268
SF-295 = system: SF-295
SN12C = system: SN12C
SNB-75 = system: SNB-75
COLO 205 = system: COLO 205
DMS-114 = system: DMS-114
DMS-273 = system: DMS-273
HL-60 = system: HL-60
SK-OV-3 = system: SK-OV-3
UACC-62 = system: UACC-62

Cc1ccc(SSCC(O)C(O)CSSc2ccc(C)cc2)cc1 (configuration not stated)
GI50 (A498): 4.51 µM (inactive) | GI50 (A549): 10.6 µM (inactive) and 10.9 µM (inactive) | GI50 (ACHN): 11.2 µM (inactive) and 15.7 µM (inactive) | GI50 (CCRF-CEM): 1.14 µM (inactive) | GI50 (DLD-1): 15 µM (inactive) and 14.1 µM (inactive) | GI50 (EKVX): 14.1 µM (inactive) and 18.1 µM (inactive) | GI50 (HCC 2998): 15 µM (inactive) and 14.2 µM (inactive) | GI50 (HCT-116): 12.1 µM (inactive) and 7.28 µM (inactive) | GI50 (HCT-15): 14.1 µM and 13.1 µM | GI50 (HOP-92): 17 µM (inactive) and 11.9 µM (inactive) | GI50 (HT-29): 13.3 µM (inactive) and 18.5 µM (inactive) | GI50 (IGROV-1): 2.99 µM (inactive) and 2.14 µM (inactive) | GI50 (KM-20L2): 13.1 µM (inactive) and 11.1 µM (inactive) | GI50 (KM12): 9.48 µM (inactive) and 11.1 µM (inactive) | GI50 (LOX IMVI): 1.3 µM (inactive) and 1.89 µM (inactive) | GI50 (LXFL 529): 10.6 µM (inactive) and 6.01 µM (inactive) | GI50 (M14): 7.29 µM (inactive) and 5.58 µM (inactive) | GI50 (M19-MEL): 16.5 µM (inactive) and 11.6 µM (inactive) | GI50 (Malme-3M): 19 µM (inactive) and 15.3 µM (inactive) | GI50 (NCI-H226): 15.2 µM (inactive) and 15.1 µM (inactive) | GI50 (NCI-H23): 5.94 µM (inactive) and 11.3 µM (inactive) | GI50 (NCI-H460): 17.5 µM (inactive) and 18.1 µM (inactive) | GI50 (NCI-H522): 1.82 µM (inactive) and 1.76 µM (inactive) | GI50 (OVCAR-4): 13.4 µM (inactive) and 14.3 µM (inactive) | GI50 (OVCAR-5): 16.6 µM (inactive) and 22.8 µM (inactive) | GI50 (RPMI-8226): 3.66 µM (inactive) and 3.26 µM (inactive) | GI50 (RXF 393): 3.92 µM (inactive) and 4.15 µM (inactive) | GI50 (SF-539): 3.42 µM (inactive) and 3.02 µM (inactive) | GI50 (SK-MEL-28): 13.9 µM (inactive) and 14.9 µM (inactive) | GI50 (SK-MEL-2): 8.18 µM (inactive) | GI50 (SK-MEL-5): 7.31 µM (inactive) and 12.6 µM (inactive) | GI50 (SNB-19): 15.1 µM (inactive) and 14.6 µM (inactive) | GI50 (SNB-78): 13.7 µM (inactive) | GI50 (SR): 3.55 µM (inactive) and 3.29 µM (inactive) | GI50 (SW-620): 7.55 µM (inactive) and 14.2 µM (inactive) | GI50 (TK-10): 15.6 µM (inactive) and 13.2 µM (inactive) | GI50 (U-251): 2.03 µM (inactive) and 2.23 µM (inactive) | GI50 (UACC-257): 15.6 µM (inactive) and 14.4 µM (inactive) | GI50 (UO-31): 4.08 µM (inactive) and 4.26 µM (inactive) | GI50 (XF498): 17.2 µM (inactive) and 13.7 µM (inactive)

COc1ccc(C[C@@H]2Cc3cc(OC)c(OC)cc3CN2C)cc1
GI50 (786-0): > 100 µM (inactive) | GI50 (A498): > 100 µM (inactive) | GI50 (A549): > 100 µM (inactive) | GI50 (ACHN): > 100 µM (inactive) | GI50 (CAKI-1): 59.7 µM (inactive) | GI50 (CCRF-CEM): > 100 µM (inactive) | GI50 (DLD-1): > 100 µM (inactive) | GI50 (EKVX): > 100 µM (inactive) | GI50 (HCC 2998): > 100 µM (inactive) | GI50 (HCT-15): > 100 µM | GI50 (HOP-62): > 100 µM (inactive) | GI50 (HT-29): > 100 µM (inactive) | GI50 (K562): > 100 µM (inactive) | GI50 (KM-20L2): > 100 µM (inactive) | GI50 (KM12): > 100 µM (inactive) | GI50 (LXFL 529): > 100 µM (inactive) | GI50 (M14): > 100 µM (inactive) | GI50 (MOLT-4): > 100 µM (inactive) | GI50 (Malme-3M): > 100 µM (inactive) | GI50 (NCI-H23): > 100 µM (inactive) | GI50 (NCI-H460): > 100 µM (inactive) | GI50 (NCI-H522): > 100 µM (inactive) | GI50 (OVCAR-3): > 100 µM (inactive) | GI50 (OVCAR-4): 76.4 µM (inactive) | GI50 (OVCAR-5): > 100 µM (inactive) | GI50 (OVCAR-8): > 100 µM (inactive) | GI50 (RPMI-8226): > 100 µM (inactive) | GI50 (SF-268): > 100 µM (inactive) | GI50 (SF-295): 57 µM (inactive) | GI50 (SK-MEL-28): > 100 µM (inactive) | GI50 (SK-MEL-2): > 100 µM (inactive) | GI50 (SK-MEL-5): > 100 µM (inactive) | GI50 (SN12C): > 100 µM (inactive) | GI50 (SNB-19): > 100 µM (inactive) | GI50 (SNB-75): > 100 µM (inactive) | GI50 (SNB-78): > 100 µM (inactive) | GI50 (SW-620): > 100 µM (inactive) | GI50 (TK-10): > 100 µM (inactive) | GI50 (U-251): > 100 µM (inactive) | GI50 (UACC-257): > 100 µM (inactive) | GI50 (UO-31): > 100 µM (inactive) | GI50 (XF498): 53.5 µM (inactive)

O=c1c2cc(Br)ccc2nc(-c2ccccc2Cl)n1NCC1(O)OCC(O)C(O)C1O (configuration not stated)
GI50 (786-0): > 100 µM (inactive) | GI50 (A498): > 100 µM (inactive) | GI50 (A549): > 100 µM (inactive) | GI50 (ACHN): > 100 µM (inactive) | GI50 (CAKI-1): > 100 µM (inactive) | GI50 (CCRF-CEM): 46.7 µM (inactive) | GI50 (COLO 205): > 100 µM (inactive) | GI50 (DMS-114): 75.9 µM (inactive) | GI50 (DMS-273): > 100 µM (inactive) | GI50 (EKVX): > 100 µM (inactive) | GI50 (HCT-116): > 100 µM (inactive) | GI50 (HCT-15): > 100 µM | GI50 (HL-60): 33.6 µM (inactive) | GI50 (HOP-62): > 100 µM (inactive) | GI50 (HT-29): > 100 µM (inactive) | GI50 (K562): > 100 µM (inactive) | GI50 (KM-20L2): > 100 µM (inactive) | GI50 (KM12): > 100 µM (inactive) | GI50 (LOX IMVI): > 100 µM (inactive) | GI50 (LXFL 529): 82.8 µM (inactive) | GI50 (M14): > 100 µM (inactive) | GI50 (M19-MEL): > 100 µM (inactive) | GI50 (MOLT-4): 57.1 µM (inactive) | GI50 (Malme-3M): > 100 µM (inactive) | GI50 (NCI-H226): 434 nM (active) | GI50 (NCI-H23): > 100 µM (inactive) | GI50 (NCI-H460): > 100 µM (inactive) | GI50 (NCI-H522): > 100 µM (inactive) | GI50 (OVCAR-3): 76.2 µM (inactive) | GI50 (OVCAR-4): 60.7 µM (inactive) | GI50 (OVCAR-5): > 100 µM (inactive) | GI50 (OVCAR-8): > 100 µM (inactive) | GI50 (RPMI-8226): 99.1 µM (inactive) | GI50 (RXF 393): > 100 µM (inactive) | GI50 (SF-268): > 100 µM (inactive) | GI50 (SF-295): > 100 µM (inactive) | GI50 (SK-MEL-28): > 100 µM (inactive) | GI50 (SK-MEL-2): > 100 µM (inactive) | GI50 (SK-MEL-5): > 100 µM (inactive) | GI50 (SK-OV-3): > 100 µM (inactive) | GI50 (SN12C): > 100 µM (inactive) | GI50 (SNB-19): > 100 µM (inactive) | GI50 (SNB-75): > 100 µM (inactive) | GI50 (SNB-78): > 100 µM (inactive) | GI50 (SR): 35.6 µM (inactive) | GI50 (SW-620): > 100 µM (inactive) | GI50 (U-251): > 100 µM (inactive) | GI50 (UACC-257): > 100 µM (inactive) | GI50 (UACC-62): > 100 µM (inactive) | GI50 (UO-31): > 100 µM (inactive)
